The target in one data set is ATB200 (Homo sapiens, UniProt P10253, H199R/R223H/V780I). The data set is described as follows: Stabilization of ATB200 by miglustat. The conditions noted are these: neutral pH of plasma.
Data set [1] is described as follows: Phase 1/2 study: plasma miglustat pharmacokinetics. The data set is classed as in vivo, human. The conditions noted are these: for half-life / Vd/F / AUC(0-inf) / AUC(0-t) / Cmax / Tmax: both sexes, human, plasma, po; for half-life / Vd/F / AUC(0-inf) / AUC(0-t) / Cmax / Tmax / CL/F: plasma miglustat; for half-life / Vd/F / CL/F: arithmetic mean; for Vd/F: read-out: Vz/F; for AUC(0-inf) / AUC(0-t) / Cmax: geometric mean; for Tmax: median. The method, then: (§1) Mean total GAA protein and miglustat PK results from the first 8 Cohort 1 patients through Visit 9 and the first 2 Cohort 3 patients were assessed.

A short description of data set [2]: Apparent plasma half-life in vivo.
Data set [3] concerns normal and Pompe fibroblast cell lines. The data set is described as follows: Cellular uptake of rhGAA by fibroblasts (16-hr incubation, 4MU-α-Glucoside hydrolysis). It counts as cell-based. The conditions noted are these: for concentration that saturates cellular receptors: normal and Pompe fibroblasts, 16-hr incubation. The procedure: The relative cellular uptake of ATB200 and Lumizyme® rhGAA were compared using normal and Pompe fibroblast cell lines. […] After 16-hr incubation, external rhGAA was inactivated with TRIS base and cells were washed 3-times with PBS prior to harvest. Internalized GAA measured by 4MU-α-Glucoside hydrolysis and was graphed relative to total cellular protein and the results appear in FIGS. 13A-13B.

In data set [4] the test system is GAA KO mice. The data set can be described thus: Muscle function in Gaa-knockout mice, longer-term studies. It counts as in vivo, mouse.
Data set [5] concerns GAA KO mice. The data set can be described thus: Glycogen clearance in GAA KO mice, 4 injections with or without miglustat (FIG. 15). It counts as in vivo, mouse. The conditions noted are these: rhGAA 20 mg/kg IV every other week, miglustat 10 mg/kg PO 30 min prior where co-administered, 14 days after last dose. From the text: Tissues were collected 14 days after last enzyme dose for glycogen measurement.

In data set [6] the test system is Gaa knockout mice. The data set is described as follows: Glycogen reduction in Gaa knockout mice, two IV bolus administrations. It counts as in vivo, mouse. From the text:
Animals were given two IV bolus administrations (every other week); tissues were harvested two weeks after the last dose and analyzed for acid α-glucosidase activity and glycogen content.

Data set [7] relates to adults with Pompe disease. The data set can be described thus: Phase 1/2 study: safety. The conditions noted are these: no infusion-associated reactions to date. The data set is classed as in vivo, human. The method, then: as §1
Data set [8] has as its system Pompe fibroblasts and skeletal muscle myoblasts. The data set is described as follows: Internalization by Pompe fibroblasts and skeletal muscle myoblasts. The data set is classed as cell-based.
The nature of data set [9]: Phase 1/2 study: plasma total GAA protein pharmacokinetics. The arrangement: species or system human. The note with it: in vivo.
Data set [10] has as its system Gaa knockout mice. The data set is described as follows: Muscle physiology and morphology in Gaa-knockout mice. The data set is classed as in vivo, mouse. The conditions noted are these: rhGAA 20 mg/kg IV every other week; miglustat 10 mg/kg oral 30 mins prior; compared to alglucosidase alfa. The method, then:
Control mice were treated with vehicle alone. Soleus, quadriceps and diaphragm tissue is harvested two weeks after the last dose of recombinant human acid α-glucosidase. […] Semi-thin sections of quadriceps muscle embedded in epoxy resin (Epon) were stained with methylene blue and observed by […] (1000×) to determine the extent of the presence of vacuoles. […] Control mice were treated with vehicle alone. Cardiac muscle tissue was harvested two weeks after the last dose of recombinant human acid α-glucosidase and analyzed for glycogen levels, by staining with periodic acid-Schiff reagent (PAS), and for lysosome proliferation, by measuring levels of LAMP1.

For data set [11], the target named is T1, CIMPR (Homo sapiens, UniProt P11717). The data set can be described thus: CIMPR plate binding assay. The method, then:
In addition to having a greater percentage of rhGAA that can bind to the CIMPR, it is important to understand the quality of that interaction. […] Briefly, CIMPR-coated plates were used to capture GAA. Varying concentrations of rhGAA were applied to the immobilized receptor and unbound rhGAA was washed off. The amount of remaining rhGAA was determined by GAA activity.

In data set [12] the target is T1, CIMPR. The data set is described as follows: CIMPR affinity chromatography of rhGAA (bound vs unbound GAA activity). The conditions noted are these: for CIMPR binding compared with ATB200 rhGAA: FIGS. 4A, 4B, 7A, 7B; for rhGAA bound to CIMPR / containing M6P (eluted with M6P) / rhGAA that did not bind to the CIMPR (GAA activity eluted prior to addition of M6P): fraction of total enzyme by GAA activity. The data set is classed as binding. The method, then:
To evaluate the ability of the rhGAA in Myozyme® and Lumizyme®, the only currently approved treatments for Pompe disease, these rhGAA preparations were injected onto a CIMPR column (which binds rhGAA having M6P groups) and subsequently eluted with a free […] gradient. Fractions were collected in 96-well plate and GAA activity assayed by 4MU-α-glucose substrate. The relative amounts of bound and unbound rhGAA were determined based on GAA activity and reported as the fraction of total enzyme.
Multiple batches of the rhGAA according to the invention were produced in shake flasks and in perfusion bioreactors using CHO cell line GA-ATB-200 and CIMPR binding was measured.

Data set [13] deals with subjects with Pompe disease. The note with it: cited from earlier work.
Where [14] appears, read: 130 mg, Low (about 130 mg oral) MD.
[15] abbreviates: 130 mg, Low (about 130 mg oral) SD.
Where [16] appears, read: 260 mg, High (about 260 mg oral) MD.
The mark [17] stands for this setting: 260 mg, High (about 260 mg oral) SD.

Read-outs that look alike come from different tables or passages of the source.

T1 sequence (P11717 41-2491, species assumed): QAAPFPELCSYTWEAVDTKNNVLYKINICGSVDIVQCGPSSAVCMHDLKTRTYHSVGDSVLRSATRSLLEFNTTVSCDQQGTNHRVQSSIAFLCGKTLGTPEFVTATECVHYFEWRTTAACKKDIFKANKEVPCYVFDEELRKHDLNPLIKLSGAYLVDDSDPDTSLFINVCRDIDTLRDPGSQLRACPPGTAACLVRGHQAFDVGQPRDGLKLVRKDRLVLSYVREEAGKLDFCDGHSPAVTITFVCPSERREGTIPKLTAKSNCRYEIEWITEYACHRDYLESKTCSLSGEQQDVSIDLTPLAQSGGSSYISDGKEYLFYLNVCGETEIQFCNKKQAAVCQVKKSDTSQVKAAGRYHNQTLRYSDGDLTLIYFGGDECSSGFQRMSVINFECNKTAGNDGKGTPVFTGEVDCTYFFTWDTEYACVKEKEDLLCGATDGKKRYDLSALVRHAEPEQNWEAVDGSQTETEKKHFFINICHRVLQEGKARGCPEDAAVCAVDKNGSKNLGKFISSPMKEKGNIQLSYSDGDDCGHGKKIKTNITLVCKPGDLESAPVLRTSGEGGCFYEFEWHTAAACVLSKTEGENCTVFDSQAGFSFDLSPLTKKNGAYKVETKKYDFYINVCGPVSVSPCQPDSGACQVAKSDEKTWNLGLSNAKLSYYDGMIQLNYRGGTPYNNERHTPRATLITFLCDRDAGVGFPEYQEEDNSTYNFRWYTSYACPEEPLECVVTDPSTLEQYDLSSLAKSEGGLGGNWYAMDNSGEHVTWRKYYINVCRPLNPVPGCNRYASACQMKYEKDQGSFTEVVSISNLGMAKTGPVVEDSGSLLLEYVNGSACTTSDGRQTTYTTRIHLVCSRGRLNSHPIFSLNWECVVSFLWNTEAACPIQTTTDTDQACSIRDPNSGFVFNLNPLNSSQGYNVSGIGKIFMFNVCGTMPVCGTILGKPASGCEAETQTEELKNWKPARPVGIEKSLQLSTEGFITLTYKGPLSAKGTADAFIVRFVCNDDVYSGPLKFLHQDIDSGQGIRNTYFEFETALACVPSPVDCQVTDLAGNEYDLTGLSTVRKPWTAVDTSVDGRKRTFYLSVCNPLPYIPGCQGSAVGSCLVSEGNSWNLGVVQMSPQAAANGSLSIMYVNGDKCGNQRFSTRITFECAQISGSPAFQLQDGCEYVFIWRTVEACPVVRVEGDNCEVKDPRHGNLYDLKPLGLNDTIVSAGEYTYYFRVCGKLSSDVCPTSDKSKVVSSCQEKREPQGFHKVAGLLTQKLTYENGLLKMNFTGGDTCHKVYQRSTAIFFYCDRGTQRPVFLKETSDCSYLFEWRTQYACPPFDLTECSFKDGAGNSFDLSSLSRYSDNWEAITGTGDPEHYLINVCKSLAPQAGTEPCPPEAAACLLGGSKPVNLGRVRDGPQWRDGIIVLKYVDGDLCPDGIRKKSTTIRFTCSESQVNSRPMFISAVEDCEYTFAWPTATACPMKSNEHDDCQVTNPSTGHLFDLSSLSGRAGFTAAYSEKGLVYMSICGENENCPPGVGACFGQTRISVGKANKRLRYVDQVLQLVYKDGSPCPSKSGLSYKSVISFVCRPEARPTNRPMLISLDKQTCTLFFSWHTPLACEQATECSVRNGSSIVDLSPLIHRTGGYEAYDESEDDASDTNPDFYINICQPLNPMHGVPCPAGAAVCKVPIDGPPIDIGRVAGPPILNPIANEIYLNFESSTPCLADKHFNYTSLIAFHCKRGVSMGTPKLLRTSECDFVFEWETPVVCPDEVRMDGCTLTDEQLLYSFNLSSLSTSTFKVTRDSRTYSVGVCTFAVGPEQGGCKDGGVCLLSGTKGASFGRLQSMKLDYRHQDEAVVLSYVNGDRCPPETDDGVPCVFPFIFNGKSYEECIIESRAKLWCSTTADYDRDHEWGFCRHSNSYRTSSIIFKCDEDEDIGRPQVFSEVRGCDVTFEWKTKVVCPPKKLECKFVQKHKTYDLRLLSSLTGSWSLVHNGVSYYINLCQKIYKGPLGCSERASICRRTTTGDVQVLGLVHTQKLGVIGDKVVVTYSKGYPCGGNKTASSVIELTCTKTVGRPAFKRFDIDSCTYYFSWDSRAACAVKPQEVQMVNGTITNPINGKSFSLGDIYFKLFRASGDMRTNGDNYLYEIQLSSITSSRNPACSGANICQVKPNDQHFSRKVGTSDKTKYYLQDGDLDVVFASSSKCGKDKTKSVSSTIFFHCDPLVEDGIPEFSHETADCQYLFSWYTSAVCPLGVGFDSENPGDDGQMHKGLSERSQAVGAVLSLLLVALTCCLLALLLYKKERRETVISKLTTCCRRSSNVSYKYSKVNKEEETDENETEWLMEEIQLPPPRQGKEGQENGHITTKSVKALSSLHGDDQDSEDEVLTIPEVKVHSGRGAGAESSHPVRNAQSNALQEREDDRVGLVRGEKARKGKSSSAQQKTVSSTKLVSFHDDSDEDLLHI

Usually half-life stands for the time in which the quantity being followed falls by half. Lower therefore signals fast loss. The term AUC(0-inf) denotes total exposure, with the tail of the curve extrapolated. Higher therefore signals more exposure. As usually defined, the AUC(0-t) is exposure summed from dosing to a finite time, without extrapolation to infinity. What is called Cmax is the highest concentration seen after dosing. Broadly, the Tmax is the time from dosing to the highest level. The term CL/F denotes clearance divided by bioavailability, as obtained after extravascular dosing. For `CCCCN1C[C@H](O)[C@@H](O)[C@H](O)[C@H]1CO` [miglustat, (2R,3R,4R,5S)-1-butyl-2-(hydroxymethyl)piperidine-3,4,5-triol], the “effect on unfolded ATB200 protein / active conformation” value at ATB200 is on record as “decrease the percentage of unfolded ATB200 protein”. In [1] (130 mg and 260 mg oral), the “dose proportionality of plasma miglustat” value was “dose-proportional kinetics”. Besides, the half-life in data set [1] (setting [14]) was 5.9 h; in data set [1] (setting [15]), 5.6 h; in data set [1] (setting [16]), 5.3 h; in data set [1] (setting [17]), 5.7 h. Also, the Vd/F stood at 86.7 L in [1] (setting [14]), 85.8 L in data set [1] (setting [15]), 81 L in data set [1] (setting [16]) and 86.3 L in data set [1] (setting [17]). Moreover, the AUC(0-inf) in data set [1] (setting [14]) turned out to be 13.1 µg·h/mL; in data set [1] (setting [15]) it was 12.6 µg·h/mL; in [1] (setting [16]), 26 µg·h/mL; in data set [1] (setting [17]), 25.9 µg·h/mL. Also, the AUC(0-t) in [1] (setting [14]) worked out at 12.3 µg·h/mL; in data set [1] (setting [15]), 11.8 µg·h/mL; in [1] (setting [16]) it was 25 µg·h/mL; in data set [1] (setting [17]), 24 µg·h/mL. The Cmax was 1.52 µg/mL in data set [1] (setting [14]), 1.49 µg/mL in data set [1] (setting [15]), 3.57 µg/mL in data set [1] (setting [16]) and 3.06 µg/mL in data set [1] (setting [17]). For the same compound, the Tmax in data set [1] (setting [14]) was 3 h; in data set [1] (setting [15]) it was 3.5 h; in data set [1] (setting [16]), 3 h; in data set [1] (setting [17]), 3.5 h. Also, the CL/F was found to be 10.3 L/h in data set [1] (High (about 260 mg oral) MD), 10.6 L/h in data set [1] (High (about 260 mg oral) SD), 10.2 L/h in [1] (Low (about 130 mg oral) MD) and 10.6 L/h in [1] (Low (about 130 mg oral) SD).

The term Vss denotes a proportionality between amount in the body and measured concentration, not a real space. Lower therefore signals confinement near the circulation. Broadly, the Kd is the concentration at which binding is half-saturated. For the compound “ATB200: recombinant human acid α-glucosidase with high M6P content, expressed in CHO cells, described in co-pending application PCT/US2015/053252”, in data set [2], the “apparent plasma half-life (t1/2)” value was around 0.75 h. The “internalization into normal and Pompe fibroblast cells” value in data set [3] (compared with Lumizyme® rhGAA) was “internalized to a greater degree than conventional Lumizyme® rhGAA”. In addition, the “concentration that saturates cellular receptors” value in data set [3] is on record as “about 20 nM”. The “intracellular accumulation of dystrophin” value in the data set with GAA KO mice [4] (6 months of administration, comparison with Lumizyme®) was “lowered intracellular accumulation of dystrophin”. Further, the “relative reduction of glycogen in quadriceps and triceps skeletal muscle” value in the data set on GAA KO mice [5] is given as “greater reduction of glycogen than Lumizyme®”. The “depletion of tissue glycogen” value in the data set with Gaa knockout mice [6] (5, 10 and 20 mg/kg, two IV bolus every other week, tissues two weeks after last dose) is reported as “dose-dependent fashion”. Moreover, the “reduction of glycogen levels in skeletal muscles” value in the data set on Gaa knockout mice [6] (10 and 20 mg/kg, compared to Lumizyme® 20 mg/kg) was “significantly better reduction of glycogen levels”. The “safety and tolerability overall” value in [7] is “safe and well tolerated”. The compound further gave a Kuptake in data set [8] of 7 to 14 nM. Also, the “volume of distribution (in words)” value in data set [9] (human) is on record as “relatively high volume of distribution”. Also, in [9] (human, 5 mg/kg), the “AUC0-∞” value was found to be 0.218 µg·h/mL, the AUC(0-t) was found to be 0.215 µg·h/mL, the Cmax was 0.061 µg/mL and the Tmax was found to be 3.8 h. In [9] (human, 5 mg/kg), this compound yielded a Vss of 4.62 L, a αt1/2 of 1.1 h and a βt1/2 of 1.9 h. In [9] (human, 10 mg/kg), the “AUC0-∞” value amounted to 0.584 µg·h/mL, the AUC(0-t) came to 0.578 µg·h/mL, the Tmax stood at 4.0 h and the αt1/2 is 1.6 h. The compound also had a βt1/2 in [9] (human, 10 mg/kg) of 1.6 h. Moreover, in data set [9] (human, 20 mg/kg), the “AUC0-∞” value came out at 1.512 µg·h/mL, the AUC(0-t) is 1.508 µg·h/mL, the Tmax amounted to 4.0 h and the αt1/2 was determined as 1.5 h. In addition, the βt1/2 in data set [9] (human, 20 mg/kg) stood at 2.1 h. The CLT in [9] (5 mg/kg) turned out to be 2.1 L/h. The compound further had a CLT in data set [9] (10 mg/kg) of 1.59 L/h. The compound also had a CLT in [9] (20 mg/kg) of 1.22 L/h. In addition, in the data set on Gaa knockout mice [10], the “lysosome proliferation (LAMP1) in heart, diaphragm and soleus” value was “reduction in lysosome proliferation”; the “punctate glycogen levels (PAS) in heart and soleus” value is “reduction in punctate glycogen levels”. In the data set with CIMPR [11] (FIG. 12A), the “CIMPR binding compared with Lumizyme®” value is given as “bound to CIMPR significantly better than Lumizyme®”. Moreover, the Kd with CIMPR [11] (M6P receptor plate binding assays) was 2 to 4 nM.

For “Lumizyme®: conventional rhGAA product (alglucosidase alfa) marketed by Genzyme”, the “uptake efficiency constant (Kuptake)” value in data set [3] (extrapolated from uptake curves, FIG. 13C) is 56 nM. The “concentration that saturates cellular receptors” value in [3] is on record as “about 250 nM”. Moreover, in the data set with GAA KO mice [4] (12 biweekly administrations, ERT 20 mg/kg, miglustat 10 mg/kg, from baseline), the “functional muscle strength (grip strength and wire hang tests)” value is recorded as “decline”. Further, in the data set with CIMPR [12], the “CIMPR binding compared with ATB200 rhGAA” value is reported as “significantly less CIMPR binding”, the “rhGAA bound to CIMPR / containing M6P (eluted with M6P)” value was 22% and the “rhGAA that did not bind to the CIMPR (GAA activity eluted prior to addition of M6P)” value is recorded as 78%.

On to “Myozyme®: conventional rhGAA product (alglucosidase alfa) marketed by Genzyme”, for which, in the data set with CIMPR [12], the “CIMPR binding compared with ATB200 rhGAA” value was “significantly less CIMPR binding”, the “rhGAA bound to CIMPR / containing M6P (eluted with M6P)” value stood at 27% and the “rhGAA that did not bind to the CIMPR (GAA activity eluted prior to addition of M6P)” value amounted to 73%.

“[199-arginine,223-histidine]prepro-α-glucosidase (human) [alglucosidase alfa]”: the “apparent plasma half-life (t1/2)” value in data set [2] is around 1 h. Moreover, in [13] (compared to historical controls), the “survival in infantile onset Pompe disease” value is “significantly improve survival”. Moreover, the “effect on 6-Minute Walk Test (6MWT) and forced vital capacity (FVC) in late onset Pompe disease” value in data set [13] (compared to placebo) is listed as “statistically significant, if modest, effect”.

The values are drawn from patent US11441138B2, “Method for selection of high M6P recombinant proteins” (Amicus Therapeutics, Inc., priority 2016, dated 2022).
